Assay results taken from patent publication US11000487B2, “Compositions and methods for the treatment of chronic pain” (CELLIX BIO PRIVATE LIMITED, priority 2016, dated 2021).
Values after ≈ are worked out from the molar mass of the structure shown. Like-named read-outs stand apart in the source and are kept apart here.

How the values were obtained:
[1] = comparison among long-chain fatty acids; cited from earlier work
[2] = system: oral pathogenic microorganisms; settings: n-6 fatty acids GLA; cited from earlier work
Candida Species [3] = test: minimum inhibitory concentration against Candida; type: cell-based; settings: conversion of 0.45 μmoles/ml
C. albicans = settings: cited from earlier work
Candida Species [4] = settings: cited from earlier work

Row | Compound | antimicrobial activity among the long-chain fatty acids [1] | bactericidal concentration [2] [µg/mL] | MIC (Candida Species [3]) [µg/mL] | activity against C. albicans (C. albicans) [%] | MIC (Candida Species [4]) [µM]
1 | CCCCC/C=C\C/C=C\C/C=C\C/C=C\CCCC(=O)O [arachidonic acid] | greatest antimicrobial activity |  |  |  | 
2 | CCCCCC/C=C\CCCCCCCC(=O)O [palmitoleic acid] | greatest antimicrobial activity |  |  |  | 
3 | CCCCCCCCCCCCCCCC(=O)O [palmitic acid] | greatest antimicrobial activity |  |  |  | 
4 | CCCCC/C=C\C/C=C\C/C=C\CCCCC(=O)O [GLA, gamma linoleic acid] | greatest antimicrobial activity | 25 |  |  | 
5 | CCCCC/C=C\C/C=C\CCCCCCCC(=O)O [linoleic acid] | greatest antimicrobial activity |  | 0.13 (≈ 0.464 µM) | < 40 | 450 (≈ 126 µg/mL)
